From patent US20240091226A1, “Forms and Formulations Of A Tyrosine Kinase Non-Receptor 1 (TNK1) Inhibitor” (Sumitomo Pharma Oncology, inc., priority 2021, published 2024)
Like-named read-outs stand apart in the source and are kept apart here.

Key:
Apc^Min+/− mice = assay: ApcMin mouse efficacy model; assay type: in vivo
Description: TNK1 upregulation is reported to play a role in the pathogenic process of intestinal barrier disruption in a transgenic mice model of increased TNK1 expression/activation (PMID: 30320600). Therefore, the efficacy of the compound of structural formula I was evaluated in germline mutant mouse model of intestinal neoplasia and cachexia, Apc^Min+/− model, which is also known to induce gut barrier dysfunction (PMID: 21914473). Apc^Min+/− mice are reported to start the development of tumors at approximately 4 weeks of age. Twenty female Apc^Min+/− mice (JAX Stock No: 002020) were enrolled in the study at the age of 10 weeks. Randomization was done based on the body weight, and animals were divided into four treatment groups (5 mice/group). […] Celecoxib is a COX-2 inhibitor, and was used as a positive control because it has been reported to prevent and regress adenomas in APC model (PMID: 11016626). Mice were sacrificed 2 hours after the last dose of total 10 weeks of dosing (71 days), at the age of 20 weeks. After dosing started, the animals were checked daily for morbidity and mortality.

DU145 cells = assay: Soft agar colony formation assay, 3D vs 2D; assay type: cell-based; conditions: for IC50: Homo sapiens, DU-145, DU145, Prostate
Description: (§1) In cancer research, natural cell characteristics and architectures can often be more closely mimicked by 3D cell models than monolayer cultures. The comparative efficacy of compound of structural formula I was explored in 2D and 3D culture systems using the soft agar colony formation assay and PDXO cultures. In each case, viability of the culture was assessed after treatment with compound of structural formula I.
(§2) Soft Agar Colony Formation Assay. Soft agar colony formation assay was performed in 10 cell lines from a variety of tumor types ranging from lung cancers to colorectal and prostate cancers (Pro Quinase Reaction Biology, Project Number: 17262). A complete list of tumor types used in the assay can be found in Table 7.1.

A549 cells = assay: Soft agar colony formation assay, 3D vs 2D; assay type: cell-based; conditions: for IC50: Homo sapiens, A549, Lung
Description: as §1, §2

HT29 cells = assay: Soft agar colony formation assay, 3D vs 2D; assay type: cell-based; conditions: for IC50: Homo sapiens, HT-29, HT29, Colorectal
Description: as §1, §2

[1] = test system: 10 cell lines from a variety of tumor types; assay: 2D culture viability (counterpart of soft agar assay); assay type: cell-based
Description: as §1, §2

[2] = test system: 10 cell lines from a variety of tumor types; assay: Soft agar colony formation assay (3D colonies); assay type: cell-based; conditions: for IC50: 3D soft agar colonies
Description: as §1, §2

[3] = Four-week capsule stability: assay and related substances (HPLC); assay type: physicochemical; conditions: initial (not stored)
Description: Methods: Samples were stored (closed) at 40° C. and […] (RH). Appearance, water content, assay and related substances (HPLC) were tested (n=6), sink dissolution.

LU6800B organoid (Lung) = assay: PDXO viability assay (Cell Titre Glo); assay type: cell-based; conditions: 120 h, 5 days of treatment
Description: as §1
(§3) Viability Assay in Patient-Derived Xenograft Organoid Cell Lines (PDXO). To mimic more closely cancer tissue-like architecture, PDX organoids derived from patient-derived xenograft tissue were utilized. Viability assay was performed in 10 PDXO models, and the IC50 values were assessed after 5 days of treatment with compound of structural formula I using Cell Titre Glo.

[4] = test system: BL5001B organoid (Bladder); assay: PDXO viability assay (Cell Titre Glo); assay type: cell-based; conditions: 120 h, 5 days of treatment
Description: as §1, §3

[5] = test system: ES6470B organoid (Esophageal); assay: PDXO viability assay (Cell Titre Glo); assay type: cell-based; conditions: 120 h, 5 days of treatment
Description: as §1, §3

[6] = test system: CR6863B organoid (Colorectal); assay: PDXO viability assay (Cell Titre Glo); assay type: cell-based; conditions: 120 h, 5 days of treatment
Description: as §1, §3

[7] = test system: GA6891B organoid (Gastric); assay: PDXO viability assay (Cell Titre Glo); assay type: cell-based; conditions: 120 h, 5 days of treatment
Description: as §1, §3

LU11873B organoid (Lung) = assay: PDXO viability assay (Cell Titre Glo); assay type: cell-based; conditions: 120 h, 5 days of treatment
Description: as §1, §3

10 PDXO models = assay: PDXO viability assay (Cell Titre Glo); assay type: cell-based; conditions: all of the organoids tested, except CR6863B
Description: as §1, §3

[8] = test system: CR5088B organoid (Colorectal); assay: PDXO viability assay (Cell Titre Glo); assay type: cell-based; conditions: 120 h, 5 days of treatment
Description: as §1, §3

LU11693B organoid (Lung) = assay: PDXO viability assay (Cell Titre Glo); assay type: cell-based; conditions: 120 h, 5 days of treatment
Description: as §1, §3

LU0743B organoid (Lung) = assay: PDXO viability assay (Cell Titre Glo); assay type: cell-based; conditions: 120 h, 5 days of treatment
Description: as §1, §3

[9] = test system: CR1489B organoid (Colorectal); assay: PDXO viability assay (Cell Titre Glo); assay type: cell-based; conditions: 120 h, 5 days of treatment
Description: as §1, §3

[10] = 3D soft agar colonies, read-out: 3D IC50
[11] = Homo sapiens, HCT-116, HCT116, Colorectal

## COc1cc(N2CCN(C)CC2)c(Cl)cc1Nc1ncc(Cl)c(Nc2cccnc2N2CCCC2=O)n1 [compound of structural formula I, 1-(3-((5-chloro-2-((5-chloro-2-methoxy-4-(4-methylpiperazin-1-yl)phenyl)amino)pyrimidin-4-yl)amino)pyridin-2-yl)pyrrolidin-2-one]
Apc^Min+/− mice; 10 mg/kg
  reduction of spleen size compared to vehicle: approximately 52%
Apc^Min+/− mice; 25 mg/kg
  reduction of spleen size compared to vehicle: approximately 40%
Apc^Min+/− mice; 25 mg/kg once daily oral gavage, 10 weeks, female Apc^Min+/− mice
  decrease in number of polyps in the intestine compared to vehicle: approximately 49%
Apc^Min+/− mice; 25 mpk
  mean spleen weight: 191 mg
Apc^Min+/− mice; FIG. 8B
  polyp growth: inhibits polyp growth
Apc^Min+/− mice; FIG. 8C
  splenomegaly and inflammation: attenuated
DU145 cells; DU145
  shift in IC50, 3D colonies vs 2D: approximately 19 fold
DU145 cells; 2D culture, read-out: 2D IC50
  IC50: 2700 nM
DU145 cells; [10]
  IC50: 140 nM
A549 cells; A549
  shift in IC50, 3D colonies vs 2D: approximately 40 fold
A549 cells; 2D culture, read-out: 2D IC50
  IC50: > 10000 nM
A549 cells; [10]
  IC50: 250 nM
HT29 cells; HT29
  shift in IC50, 3D colonies vs 2D: approximately 32 fold
HT29 cells; 2D culture, read-out: 2D IC50
  IC50: 7680 nM
HT29 cells; [10]
  IC50: 240 nM
[1]; [11]
  IC50: 3360 nM
[1]; Homo sapiens, Lovo, Colorectal
  IC50: 3580 nM
[1]; PC3, Prostate
  IC50: > 10000 nM
[2]; Homo sapiens, A2058, A2058, Melanoma
  IC50: 980 nM
[2]; Homo sapiens, C-33-A, C33A, Cervical
  IC50: 900 nM
[2]; [11]
  IC50: 750 nM
[2]; Homo sapiens, LoVo, Colorectal
  IC50: 2900 nM
[2]; Homo sapiens, SW948, SW948, Colorectal
  IC50: 730 nM
[2]; PC3, Prostate
  IC50: 870 nM
[2]; T84, Colorectal
  IC50: 1500 nM
[2]; most of the cell lines tested
  sensitivity of 3D colonies compared to 2D counterparts (in words): increased sensitivity
[3]
  Related substance at RRT 0.84: <0.05%
  Related substance at RRT 0.89: 0.15%
  Related substance at RRT 0.97: 0.15%
  Related substance at RRT 1.08: 0.11%
  Related substance at RRT 1.13: <0.05%
  Related substance at RRT 1.20: 0.09%
  Related substance at RRT 1.21: 0.05%
  Related substance at RRT 1.24: 0.08%
  Related substance at RRT 1.29: <0.05%
  Related substance at RRT 1.33: <0.05%
  Total Impurities: 0.63%
LU6800B organoid (Lung)
  IC50: 400 nM
[4]
  IC50: 400 nM
[5]
  IC50: 510 nM
[6]
  IC50: 10100 nM
[7]
  IC50: 1240 nM
LU11873B organoid (Lung)
  IC50: 440 nM
10 PDXO models
  IC50: < 10000 nM
[8]
  IC50: 3250 nM
LU11693B organoid (Lung)
  IC50: 2120 nM
LU0743B organoid (Lung)
  IC50: 2430 nM
[9]
  IC50: 2180 nM
